Reference: patent US9765074B2, “Inhibitors of the renal outer medullary potassium channel” (Merck Sharp & Dohme Corp., priority 2013, dated 2017)

These molecules were tested against T1, hROMK (hKir1.1) (Homo sapiens, UniProt P48048) (assay: Thallium Flux Assay (ROMK channel functional thallium flux, FLIPR-Tetra)). Details: HEK293 cells stably expressing hROMK (hKir1.1); 30 min compound incubation.
T1 construct: expressed in transfected cells
T1 sequence (P48048 1-391): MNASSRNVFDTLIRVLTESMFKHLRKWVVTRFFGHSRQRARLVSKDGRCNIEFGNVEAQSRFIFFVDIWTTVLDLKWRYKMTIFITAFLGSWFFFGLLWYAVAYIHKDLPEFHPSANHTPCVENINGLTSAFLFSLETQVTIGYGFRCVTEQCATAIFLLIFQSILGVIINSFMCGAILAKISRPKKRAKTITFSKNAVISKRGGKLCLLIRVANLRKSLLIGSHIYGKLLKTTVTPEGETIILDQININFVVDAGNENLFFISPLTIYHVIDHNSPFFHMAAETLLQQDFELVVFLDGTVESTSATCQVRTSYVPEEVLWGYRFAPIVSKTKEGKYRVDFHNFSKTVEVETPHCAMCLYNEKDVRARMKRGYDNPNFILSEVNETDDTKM
Assay type: cell-based
Method in brief: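 HEK293 cells stably expressing hKir1.1, loaded with FluxOR dye for 90 min, then preincubated with compound for 30 min at ambient temperature with 0.3 mM ouabain and probenecid. Stimulated with 3 mM thallium/0.3 mM potassium (final); fluorescence read ~10 min. Normalized to 3 μM reference ROMK inhibitor; IC50 from inhibition of flux.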

| IC50 [nM] | SMILES |
| --- | --- |
| 110 | CC1=C(N2CC[C@]3(CCN(C[C@H](O)c4cnc(-n5cnnn5)cn4)CC3F)C2=O)COC1=O (mixture of isomers) [Example 224, 6-fluoro-8-{(2S)-2-hydroxy-2-[5-(1H-tetrazol-1-yl)pyrazin-2-yl]ethyl}-2-(4-methyl-5-oxo-2,5-dihydrofuran-3-yl)-1-oxo-2-aza-8-azoniaspiro[4.5]decane] |
| 4 | CC1=C(N2C=CC3(CCN([C@H](C)Cc4ccc(-n5cnnn5)nn4)CC3)C2=O)COC1=O (single isomer, unassigned) [Example 273] |
| 20 | CC1=C(N2CCC3(CCN(C[C@H](O)c4c(F)cc(-n5cnnn5)cc4F)CC3)C2=O)COC1=O [Example 76, 8-{(2R)-2-[2,6-difluoro-4-(1H-tetrazol-1-yl)phenyl]-2-hydroxyethyl}-2-(4-methyl-5-oxo-2,5-dihydrofuran-3-yl)-1-oxo-2-aza-8-azoniaspiro[4.5]decane] |
| 10 | CC1=C(N2CCC3(CCN(C[C@H](O)c4ccc(-n5cnnn5)cc4F)CC3)C2=O)COC1=O [Example 36, 8-{(2R)-2-[2-fluoro-4-(1H-tetrazol-1-yl)phenyl]-2-hydroxyethyl}-2-(4-methyl-5-oxo-2,5-dihydrofuran-3-yl)-1-oxo-2-aza-8-azoniaspiro[4.5]decane] |
| 60 | CC1=C(N2C(=O)C3(CCN(C[C@H](O)c4ccc(-n5cnnn5)nn4)CC3)CC2C)COC1=O (single isomer, unassigned) [Example 123] |
| 120 | O=C1C=C(N2C(=O)C3(CCN(C[C@H](O)c4cnc(-n5cnnn5)cn4)CC3)CC2C2CC2)CO1 (mixture of isomers) [Example 212, 3-cyclopropyl-8-{(2S)-2-hydroxy-2-[5-(1H-tetrazol-1-yl)pyrazin-2-yl]ethyl}-2-(5-oxo-2,5-dihydrofuran-3-yl)-2,8-diazaspiro[4.5]decan-1-one] |
| 60 | CC1=C(N2C(=O)C3(CCN(C[C@H](O)c4ccc(-n5cnnn5)nn4)CC3)CC2C)COC1=O (single isomer, unassigned) [Example 125] |
| 10 | CC1=C(N2CCC3(CCN(C[C@H](O)c4ccc(-n5cnnn5)cn4)CC3)C2=O)COC1=O [Example 22, 8-{(2S)-2-hydroxy-2-[5-(1H-tetrazol-1-yl)pyridin-2-yl]ethyl}-2-(4-methyl-5-oxo-2,5-dihydrofuran-3-yl)-1-oxo-2-aza-8-azoniaspiro[4.5]decane] |
| 90 | CC1=C(N2CCC3(CCN(C[C@H](C)c4ccc(-n5cnnn5)nn4)CC3)C2=O)COC1=O (single isomer, unassigned) [Example 290] |
| 120 | O=C1C=C(N2C=CC3(CCN(C[C@H](O)c4ccc(-n5cnnn5)nn4)CC3)C2=O)CO1 [Example 201, 8-{(2S)-2-hydroxy-2-[6-(1H-tetrazol-1-yl)pyridazin-3-yl]ethyl}-1-oxo-2-(5-oxo-2,5-dihydrofuran-3-yl)-2-aza-8-azoniaspiro[4.5]dec-3-ene] |
| 40 | CC1=C(N2CCC3(CCN(C[C@H](O)c4nnc(-n5cnnn5)c(C)c4C)CC3)C2=O)COC1=O [Example 69, 8-{(2S)-2-[4,5-dimethyl-6-(1H-tetrazol-1-yl)pyridazin-3-yl]-2-hydroxyethyl}-2-(4-methyl-5-oxo-2,5-dihydrofuran-3-yl)-1-oxo-2-aza-8-azoniaspiro[4.5]decane] |
| 10 | CC1=C(N2C(=O)C3(CCN(C[C@H](O)c4ccc(-n5cnnn5)nc4)CC3)CC2C)COC1=O (single isomer, unassigned) [Example 65] |
| 30 | O=C1C=C(N2C(=O)C3(CCN(C[C@H](O)c4ccc(-n5cnnn5)nc4)CC3)CC2C2CC2)CO1 (mixture of isomers) [Example 215, 3-cyclopropyl-8-{(2R)-2-hydroxy-2-[6-(1H-tetrazol-1-yl)pyridin-3-yl]ethyl}-2-(5-oxo-2,5-dihydrofuran-3-yl)-2,8-diazaspiro[4.5]decan-1-one] |
| 20 | CC1=C(N2CCC3(CCN(CCc4cc(C)c(-n5cnnn5)nn4)CC3)C2=O)COC1=O [Example 237, 2-(4-methyl-5-oxo-2,5-dihydrofuran-3-yl)-8-{2-[5-methyl-6-(1H-tetrazol-1-yl)pyridazin-3-yl]ethyl}-1-oxo-2-aza-8-azoniaspiro[4.5]decane] |
| 170 | CC1=C(N2C(=O)C3(CCN(C[C@H](O)c4cnc(-n5cnnn5)cn4)CC3)CC2C)COC1=O (single isomer, unassigned) [Example 67] |
| 640 | CC1=C(N2CCC3(CCN(C[C@@H](O)c4cncc(-n5cnnn5)c4)CC3)C2=O)COC1=O [Example 132, 8-{(2S)-2-hydroxy-2-[5-(1H-tetrazol-1-yl)pyridin-3-yl]ethyl}-2-(4-methyl-5-oxo-2,5-dihydrofuran-3-yl)-1-oxo-2-aza-8-azoniaspiro[4.5]decane] |
| 10 | CC1=C(N2CCC3(CCN(C[C@H](O)c4ccc(-n5cnnn5)cc4C)CC3)C2=O)COC1=O [Example 38, 8-{(2R)-2-hydroxy-2-[2-methyl-4-(1H-tetrazol-1-yl)phenyl]ethyl}-2-(4-methyl-5-oxo-2,5-dihydrofuran-3-yl)-1-oxo-2-aza-8-azoniaspiro[4.5]decane] |
| 790 | COC1CN(C[C@H](O)c2cnc(-n3cnnn3)cn2)CCC12CCN(C1=C(C)C(=O)OC1)C2=O (single isomer, unassigned) [Example 178] |
| 30 | CCC1CC2(CCN(C[C@H](O)c3cnc(-n4cnnn4)cn3)CC2)C(=O)N1C1=CC(=O)OC1 (mixture of isomers) [Example 221, 3-ethyl-8-{(2S)-2-hydroxy-2-[5-(1H-tetrazol-1-yl)pyrazin-2-yl]ethyl}-2-(5-oxo-2,5-dihydrofuran-3-yl)-2,8-diazaspiro[4.5]decan-1-one] |
| 4 | Cc1cc(-n2cnnn2)nnc1CCN1CCC2(CC1)C[C@H](C)N(C1=CC(=O)OC1)C2=O [Example 262, (3S)-3-methyl-8-{2-[4-methyl-6-(1H-tetrazol-1-yl)pyridazin-3-yl]ethyl}-2-(5-oxo-2,5-dihydrofuran-3-yl)-2,8-diazaspiro[4.5]decan-1-one] |
| 160 | CC1=C(N2CCC3(CCN(C[C@@H](O)c4ccnc(-n5cnnn5)c4)CC3)C2=O)COC1=O [Example 130, 8-{(2S)-2-hydroxy-2-[2-(1H-tetrazol-1-yl)pyridin-4-yl]ethyl}-2-(4-methyl-5-oxo-2,5-dihydrofuran-3-yl)-1-oxo-2-aza-8-azoniaspiro[4.5]decane] |
| 70 | CC1=C(N2CCC3(CCN(C[C@@H](O)c4nnc(-n5cnnn5)cc4C)CC3F)C2=O)COC1=O (single isomer, unassigned) [Example 186] |
| 10 | CC1=C(N2CCC3(CCN(CCc4ncc(-n5cnnn5)nc4C)CC3)C2=O)COC1=O [Example 252, 2-(4-methyl-5-oxo-2,5-dihydrofuran-3-yl)-8-{2-[3-methyl-5-(1H-tetrazol-1-yl)pyrazin-2-yl]ethyl}-2,8-diazaspiro[4.5]decan-1-one] |
| 10 | CC1=C(N2CCC3(CCN(CCc4ccc(-n5cnnn5)nc4)CC3)C2=O)COC1=O [Example 233] |
| 50 | CC1=C(N2CCC3(CCN(C[C@H](O)c4nnc(-n5cnnn5)cc4C)CC3F)C2=O)COC1=O (single isomer, unassigned) [Example 185] |
| 80 | CC1=C(N2C(=O)C3(CCN(C[C@@H](O)c4ncc(-n5cnnn5)cc4C)CC3)CC2C)COC1=O (single isomer, unassigned) [Example 138] |

| SMILES | IC50 [nM] |
| --- | --- |
| COC1CN(C2=C(C)C(=O)OC2)C(=O)C12CC1CCC(C2)N1C[C@@H](O)c1ccc(-n2cnnn2)nc1 (single isomer, unassigned) [Example 109] | 60 |
